Measurements: patent publication US20220226338A1, “Methods of Treating Cancer Using CHK1 Inhibitors” (Sierra Oncology, Inc., priority 2019, published 2022)

Legend:
Single dose PK, rat = type: in vivo; settings: Rat oral 10 mg/kg single dose
From the text: (§1) Several studies have been conducted to evaluate the PK properties of SRA737, such as the absorption (in vitro permeability assays and in vivo PK following IV and oral administration), distribution (in vivo tissue distribution and in vitro plasma protein binding) and metabolism (in vitro hepatocyte and CYP inhibition and induction studies) of SRA737.
(§2) The PK of SRA737 have been determined in the mouse, rat, dog and monkey following oral and IV administration (Table 3). […] An acceptable terminal elimination t1/2 was also observed in each species. […] The plasma protein binding of SRA737 at 1 and 10 μM was examined in mouse, minipig, monkey and human plasma using ultracentrifugation and in dog plasma (10 μM) using rapid equilibrium dialysis.

[1] = Three-cycle combination toxicity study with gemcitabine and cisplatin; type: in vivo, mouse; settings: mice; SRA737 with IV gemcitabine and cisplatin, intermittent schedule over 18 days; high dose triplet group
From the text: Clinical combination of SRA737 and gemcitabine in some cases therefore elicited exacerbated hematological and GI toxicities.

[2] = Excretion in urine and feces, mice; type: in vivo; settings: 24-hour collection
Protocol: (§3) The excretion of SRA737 has been studied in mice and rats administered SRA737 at either 5 mg/kg IV or 10 mg/kg orally. Urine and feces were collected for a 24-hour period after dosing. In mice, renal excretion of intact SRA737 was consistently low (less than 10% of dose) after both oral and IV administration. Following IV administration of SRA737, less than 8% of the dose was recovered as intact drug in the feces while after oral administration this figure was less than 3%. Excretion of intact SRA737 was lower in the rat than in the mouse with <1% of dose excreted renally over 24 hours and less than 1.5% of dose excreted into the feces over 24 hours.

[3] = system: cryopreserved hepatocytes; assay: Stability in cryopreserved minipig hepatocytes; type: in vitro ADME; settings: 10 μM, after 4 hours of incubation
Protocol: (§4) The formation of SRA737-related metabolites was determined in cryopreserved hepatocytes from human, mouse, rat, dog, minipig and monkey samples after incubation with SRA737 at a nominal concentration of 10 μM for up to 4 hours. […] In the human hepatocyte preparation, approximately 67% of the parent remained after 4 hours of incubation compared to 75% and 7% in the rat and minipig preparations, respectively. Eight human SRA737 metabolites were observed. All SRA737 metabolites formed by human hepatocytes were also formed by monkey hepatocytes. Six metabolites were present at equal or greater abundance in the monkey.

[4] = system: cryopreserved hepatocytes; assay: Stability in cryopreserved rat hepatocytes; type: in vitro ADME; settings: 10 μM, after 4 hours of incubation
Protocol: as §4

Chk1 autophosphorylation = assay: In vitro Chk1 inhibition after genotoxic chemotherapy (autophosphorylation, checkpoint arrest, cytotoxicity potentiation); type: cell-based
Single dose PK, dog = type: in vivo; settings: Dog oral 5 mg/kg single dose
From the text: as §1, §2

[5] = Parallel artificial membrane permeability assay (PAMPA); type: in vitro ADME
Protocol: The membrane permeability of SRA737 was assessed in the parallel artificial membrane permeability assay (PAMPA) and Caco-2 assays. Permeability in the PAMPA assay was classified as low.

[6] = mouse, in vivo
Protocol: Reference source not found.6.
These findings were reversible on cessation of drug administration.
The MTD was 75 mg/kg/day (225 mg/m^2/day) in the mouse and the HNSTD was […] (350 mg/m^2/day) in the minipig.

[7] = Excretion in urine and feces, rats; type: in vivo; settings: rat, over 24 hours
Protocol: as §3

cancer xenograft models = assay: In vivo efficacy studies in xenograft, PDX and syngeneic models; set-up: species or system mouse
Protocol: A program of in vivo efficacy studies was performed to assess the activity of SRA737 in combination with genotoxic chemotherapy and targeted agents, and as monotherapy.
One of these models also carried a MYCN amplification. A fourth HGSOC PDX model with partial resistance to PARPi was also sensitive to high dose SRA737 monotherapy.

[8] = system: cryopreserved hepatocytes; assay: Stability and metabolites in cryopreserved human hepatocytes; type: in vitro ADME
Protocol: as §4

CYP1A2 = assay: CYP induction in vitro; type: in vitro ADME; settings: positive control omeprazole, minimal, concentration dependent

## N#Cc1cnc(Nc2cc(NCC3CNCCO3)c(C(F)(F)F)cn2)cn1 (stereo not drawn) [SRA737, 5-[[4-[[morpholin-2-yl]methylamino]-5-(trifluoromethyl)-2-pyridyl]amino]pyrazine-2-carbonitrile]
Single dose PK, rat
  Foral: 42%
[1]
  additional finding in triple combination study: reversible intestinal epithelial degeneration
[2]; 5 mg/kg IV or 10 mg/kg oral
  renal excretion of intact SRA737: less than 10 % of dose
[2]; IV administration
  intact drug recovered in the feces: less than 8 % of dose
[2]; oral administration
  intact drug recovered in the feces: less than 3 % of dose
[3]
  parent remaining: 7%
[4]
  parent remaining: 75%
Chk1 autophosphorylation
  inhibition of genotoxicity-induced checkpoint arrest: dose-dependent inhibition
  potentiation of the cytotoxicity of genotoxic chemotherapeutic agents and targeted agents: dose-dependent potentiation
Chk1 autophosphorylation; data not shown
  inhibition of genotoxic chemotherapy-induced Chk1 autophosphorylation: potently inhibited
Single dose PK, dog
  Foral: 86%
[5]
  permeability in the PAMPA assay: low
[6]
  changes in reproductive organs: changes in reproductive organs, particularly the testes, were also observed
  dose-dependent toxicological findings: bone marrow toxicity
[7]
  intact SRA737 excreted into the feces: less than 1.5 % of dose
  intact SRA737 excreted renally: < 1 % of dose
Cancer xenograft models; Calu6 model, data not shown
  synergy with gemcitabine and carboplatin: Synergy
Cancer xenograft models; HGSOC PDX models harboring CCNE1 amplifications accompanied by TP53 mutations, data not shown
  antitumor activity as a single agent: Significant antitumor activity
Cancer xenograft models; HT29 (FIG. 5), OVCAR3 and SJSA-1 CDX models, PDX model of TNBC
  synergy with low-dose gemcitabine: Synergy was also observed
Cancer xenograft models; HT29, SJSA-1, SW620, Calu6, KPC-1 and patient-derived bladder carcinoma xenograft models, data not shown
  antitumor activity in combination with standard-dose gemcitabine: Significant, dose-dependent antitumor activity
Cancer xenograft models; HT29 model, data not shown
  synergy with irinotecan: Synergy
Cancer xenograft models; OVCAR3, Eμ-Myc, MOLM-13, TH-MYC, MDA-MB-231, Renca and LL/2 models, data not shown
  single agent efficacy: demonstrated single agent efficacy
Cancer xenograft models; fourth HGSOC PDX model with partial resistance to PARPi
  sensitivity to high dose SRA737 monotherapy: sensitive
Cancer xenograft models; syngeneic mouse models mTmG, MC38 and Pan02, data not shown
  antitumor activity in combination with a PD1/PD-L1 inhibitor: Significant antitumor activity
[8]
  number of human SRA737 metabolites observed: Eight
[8]; 10 μM, after 4 hours of incubation
  parent remaining: approximately 67%
CYP1A2
  induction of CYP1A2: < 10 % positive control
